What was measured:
HS 578T = conditions: Homo sapiens
Pim-1 = Pim-1 (Homo sapiens, UniProt P11309); experiment: PIM kinase inhibitory assay (ADP-Glo); assay type: biochemical
CNS cancer subpanel = experiment: NCI 60 subpanel summary; assay type: cell-based, human
CCRF-CEM = conditions: Homo sapiens, CCRF-CEM
Breast cancer subpanel = experiment: NCI 60 subpanel summary; assay type: cell-based, human
EGFR (WT) = target: T1, EGFR (WT) (Homo sapiens, UniProt P00533); experiment: EGFR WT kinase inhibitory assay (HTRF); assay type: biochemical
T1 construct: purchased Sigma

HepG-2 cancer cells = experiment: Annexin V-FITC/PI apoptosis detection; assay type: cell-based, human; conditions: 24 h
Experimental: The annexin V-FITC apoptosis detection kit (BD Biosciences) was used to quantify the percentage of cells undergoing apoptosis and detect the modes of cell death, either by apoptosis or necrosis, in the presence or absence of the active compound 3d. The experiment was carried out according to the manufacturer's protocol. More details are presented in the SI.
Flow cytometry assay employing annexin V-FITC and propidium iodide double labeling was used to further examine the apoptotic impact of compound 3d.[81,82] […] Additionally, 3d enhanced the late apoptotic effect from 0.17% in the control cells to 15.07% in the treated cells. Moreover, compound 3d promoted necrosis by 4.32% in the 3d-treated cells in comparison with 1.4% in the untreated ones (Table 5 and Fig. 4). These findings support the cytotoxic action of compound 3d on HepG-2 cells. In addition, it implies that its cytotoxic impact is not only due to it initiating programmed cell death pathways in an orderly manner but also its ability to effectively complete the apoptotic process, which results in the fragmentation and removal of cancer cells. […]
5.2.4. Annexin-V FTIC apoptotic study
Estimation of fractional DNA content (aka sub-G1 assay) is a widely used assay to determine apoptosis. Cleavage of genomic DNA into smaller fragments (180–200 bp lengths) is a hallmark for apoptosis in numerous cells. PI stained cells will stain less intensely and show a peak below the G1 peak (Sub-G1). In this work, flow cytometer with Annexin V-fluorescein isothiocyanate/propidium iodide FITC/PI double staining apoptosis detection kit (K101, Biovision) was used to study apoptosis of MCF-7 cells treated with compound 3d. Cells were incubated, collected by centrifugation, re-suspended in 500 μL of 1X binding buffer. Annexin V-FITC (5 μL) and PI (5 μL) was added and incubation was continued for additional 5 min in the dark at room temperature. Annexin V-FITC binding was analyzed by flow cytometry using FITC signal detector (FL1) and PI staining by FL2 phycoerythrin emission signal detector [75].

c-Met = c-Met (Homo sapiens, UniProt P08581); experiment: c-Met kinase inhibitory assay (HTRF); assay type: biochemical
[1] = single dose 10 μM, colon cancer
[2] = single dose 10 μM, non-small lung carcinoma
[3] = Homo sapiens, subpanel mean graph midpoint, read-out: MG-MID (GI50)
[4] = full panel MG-MID / subpanel MG-MID
[5] = single dose 10 μM, renal carcinoma
[6] = single dose 10 μM, ovarian carcinoma

T1 sequence (P00533 25-1210): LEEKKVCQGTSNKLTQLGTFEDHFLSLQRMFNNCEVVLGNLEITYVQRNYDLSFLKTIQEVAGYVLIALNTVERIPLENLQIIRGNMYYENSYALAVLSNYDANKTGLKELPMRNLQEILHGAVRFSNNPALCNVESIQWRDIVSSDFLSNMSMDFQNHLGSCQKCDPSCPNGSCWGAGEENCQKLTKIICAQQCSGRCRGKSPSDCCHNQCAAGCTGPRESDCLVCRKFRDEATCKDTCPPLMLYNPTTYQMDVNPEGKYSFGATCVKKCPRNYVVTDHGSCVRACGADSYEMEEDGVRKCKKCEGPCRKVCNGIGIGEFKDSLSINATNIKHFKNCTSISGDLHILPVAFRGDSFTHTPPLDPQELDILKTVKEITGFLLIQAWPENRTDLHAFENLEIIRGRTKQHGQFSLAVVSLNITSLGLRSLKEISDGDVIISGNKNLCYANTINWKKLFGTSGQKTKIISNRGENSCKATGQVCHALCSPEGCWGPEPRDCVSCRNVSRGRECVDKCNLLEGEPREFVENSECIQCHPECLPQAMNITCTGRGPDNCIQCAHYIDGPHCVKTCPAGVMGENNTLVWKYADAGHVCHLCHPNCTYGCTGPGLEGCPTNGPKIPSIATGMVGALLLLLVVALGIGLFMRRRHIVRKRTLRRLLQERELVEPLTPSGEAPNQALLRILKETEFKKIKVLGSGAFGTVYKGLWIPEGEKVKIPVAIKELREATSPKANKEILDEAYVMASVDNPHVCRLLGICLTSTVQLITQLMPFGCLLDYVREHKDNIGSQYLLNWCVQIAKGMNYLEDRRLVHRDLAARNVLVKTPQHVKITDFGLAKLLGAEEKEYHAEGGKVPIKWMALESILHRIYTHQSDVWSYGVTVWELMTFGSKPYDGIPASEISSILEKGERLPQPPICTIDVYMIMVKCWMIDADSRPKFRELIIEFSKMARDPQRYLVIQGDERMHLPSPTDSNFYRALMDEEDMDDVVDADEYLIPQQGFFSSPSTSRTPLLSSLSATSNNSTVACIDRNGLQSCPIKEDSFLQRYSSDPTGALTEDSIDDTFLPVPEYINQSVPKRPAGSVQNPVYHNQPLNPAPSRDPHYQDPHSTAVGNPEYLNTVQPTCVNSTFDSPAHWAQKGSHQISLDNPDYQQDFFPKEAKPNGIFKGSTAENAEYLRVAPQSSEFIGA
Chain of Pim-1 (P11309 whole entry): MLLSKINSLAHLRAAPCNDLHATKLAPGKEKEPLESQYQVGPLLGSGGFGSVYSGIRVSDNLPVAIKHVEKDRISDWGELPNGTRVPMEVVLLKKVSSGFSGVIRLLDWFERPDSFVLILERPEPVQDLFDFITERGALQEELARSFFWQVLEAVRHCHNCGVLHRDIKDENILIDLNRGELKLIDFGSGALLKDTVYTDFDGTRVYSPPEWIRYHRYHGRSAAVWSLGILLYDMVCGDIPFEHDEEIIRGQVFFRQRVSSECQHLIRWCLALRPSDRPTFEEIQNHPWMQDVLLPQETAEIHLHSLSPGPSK
Chain of c-Met (P08581 25-1390): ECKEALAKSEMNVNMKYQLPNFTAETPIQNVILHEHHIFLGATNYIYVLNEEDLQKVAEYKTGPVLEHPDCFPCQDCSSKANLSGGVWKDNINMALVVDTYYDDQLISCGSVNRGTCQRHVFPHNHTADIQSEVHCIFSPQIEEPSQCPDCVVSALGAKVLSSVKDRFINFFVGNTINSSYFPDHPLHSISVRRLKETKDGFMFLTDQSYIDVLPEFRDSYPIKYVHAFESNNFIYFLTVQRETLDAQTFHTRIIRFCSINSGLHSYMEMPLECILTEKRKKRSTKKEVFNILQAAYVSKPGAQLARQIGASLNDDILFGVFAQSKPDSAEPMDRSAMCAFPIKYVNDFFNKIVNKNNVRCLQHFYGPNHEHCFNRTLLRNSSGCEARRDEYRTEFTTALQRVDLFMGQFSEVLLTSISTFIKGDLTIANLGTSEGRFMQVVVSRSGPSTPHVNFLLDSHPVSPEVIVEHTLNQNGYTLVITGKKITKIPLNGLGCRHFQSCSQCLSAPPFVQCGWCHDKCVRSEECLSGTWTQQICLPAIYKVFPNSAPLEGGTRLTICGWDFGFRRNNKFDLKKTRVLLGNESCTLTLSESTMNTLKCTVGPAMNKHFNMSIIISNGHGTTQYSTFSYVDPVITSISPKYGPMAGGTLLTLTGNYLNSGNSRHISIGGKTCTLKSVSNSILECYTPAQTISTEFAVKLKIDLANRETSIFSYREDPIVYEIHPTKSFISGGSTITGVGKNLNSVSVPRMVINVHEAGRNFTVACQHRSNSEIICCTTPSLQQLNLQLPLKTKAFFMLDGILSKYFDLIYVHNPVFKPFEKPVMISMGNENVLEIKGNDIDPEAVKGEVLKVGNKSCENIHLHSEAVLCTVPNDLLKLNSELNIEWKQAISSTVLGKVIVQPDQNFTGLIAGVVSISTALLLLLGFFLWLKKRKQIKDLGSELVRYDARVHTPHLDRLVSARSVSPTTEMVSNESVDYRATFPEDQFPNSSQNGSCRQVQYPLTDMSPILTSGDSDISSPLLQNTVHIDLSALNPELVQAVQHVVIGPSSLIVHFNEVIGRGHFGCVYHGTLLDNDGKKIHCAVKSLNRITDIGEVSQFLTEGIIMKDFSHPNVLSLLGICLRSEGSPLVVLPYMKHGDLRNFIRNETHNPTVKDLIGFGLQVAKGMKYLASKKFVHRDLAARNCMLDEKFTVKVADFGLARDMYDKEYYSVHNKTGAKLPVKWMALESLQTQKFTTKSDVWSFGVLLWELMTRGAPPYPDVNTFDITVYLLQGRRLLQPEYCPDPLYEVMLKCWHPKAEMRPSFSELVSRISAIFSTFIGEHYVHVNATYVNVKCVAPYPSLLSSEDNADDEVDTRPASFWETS

c1ccc(-n2cc(C3CC(c4nc5ccccc5[nH]4)=NN3)c(-c3cc4ccccc4o3)n2)cc1 (stereo not drawn) [3d, 3-(Benzofuran-2-yl)-4-(3-(1H-benzo[d]imidazol-2-yl)-4,5-dihydro-1H-pyrazol-5-yl)-1-phenyl-1H-pyrazole]
GI50 (HT29; Homo sapiens, HT-29): 6.46 µM | GI% (HT29; [1]): 64.97% | GI50 (HS 578T): 7.94 µM | GI50 (PC-3; Homo sapiens, PC-3): 3.47 µM | GI% (PC-3; single dose 10 μM, prostate carcinoma): 91.14% | IC50 (Pim-1): 2370 nM | times less sensitive, Pim-1, than to staurosporine (Pim-1; ratio of IC50 values): 4.9 | GI50 (A549/ATCC; Homo sapiens, A549): 3.86 µM | GI% (A549/ATCC; [2]): 87.82% | GI50 (T-47D; Homo sapiens, T47D): 3.12 µM | GI% (T-47D; single dose 10 μM, breast carcinoma): 88.48% | GI50 (CNS cancer subpanel; [3]): 3.55 µM | Selectivity index (CNS cancer subpanel; [4]): 1.18 | GI50 (TK-10; Homo sapiens, TK-10): 4.97 µM | GI% (TK-10; [5]): 75.14% | GI50 (LOX IMVI; Homo sapiens, LOX IMVI): 3.71 µM | GI% (LOX IMVI; single dose 10 μM, melanoma): 75.62% | GI50 (CCRF-CEM): 3.11 µM | GI50 (OVCAR-3; Homo sapiens, OVCAR-3): 4.91 µM | GI% (OVCAR-3; [6]): 81.63% | GI50 (SR; Homo sapiens, SR): 3.15 µM | GI% (SR; single dose 10 μM, leukemia): 91.17% | GI50 (KM12; Homo sapiens, KM12): 5.55 µM | GI% (KM12; [1]): 91.86% | GI50 (Breast cancer subpanel; [3]): 4.49 µM | Selectivity index (Breast cancer subpanel; [4]): 0.935 | GI50 (HOP-62; Homo sapiens, HOP-62): 3.66 µM | GI% (HOP-62; [2]): 74.46% | GI50 (SF-539; Homo sapiens, SF-539): 3.97 µM | GI% (SF-539; single dose 10 μM, CNS cancer): 85.47% | GI50 (K-562; Homo sapiens, K562): 3.37 µM | GI% (K-562; single dose 10 μM, leukemia): 92.52% | IC50 (EGFR (WT)): 398 nM | times more effective at suppressing EGFR (WT) than erlotinib (EGFR (WT); ratio of IC50 values): 1.2 | Late apoptosis (HepG-2 cancer cells; control 0.17): 15.07% | Early apoptosis (HepG-2 cancer cells; control 0.52): 24.66% | Necrosis (HepG-2 cancer cells; control 1.4): 4.32% | Apoptosis, total (HepG-2 cancer cells; control 2.09): 44.05% | GI50 (SK-MEL-28; Homo sapiens, SK-MEL-28): 4.58 µM | GI% (SK-MEL-28; single dose 10 μM, melanoma): 80.99% | GI50 (IGROV1; Homo sapiens, IGROV-1): 3.34 µM | GI% (IGROV1; [6]): 89.61% | GI50 (NCI-H23; Homo sapiens, NCI-H23): 3.69 µM | GI% (NCI-H23; [2]): 78.78% | GI50 (A498; Homo sapiens, A498): 12.7 µM | GI% (A498; [5]): 54.33% | IC50 (c-Met): 911 nM | GI50 (SN12C; Homo sapiens, SN12C): 3.42 µM | GI% (SN12C; [5]): 88.17% | GI50 (OVCAR-4; Homo sapiens, OVCAR-4): 3.51 µM | GI% (OVCAR-4; [6]): 66.52%

Source: article PMC12486440, “Design, synthesis, and in silico studies of new benzofuran–pyrazole hybrids as multi-kinase inhibitors with potential antiproliferative activity” (RSC Advances, 2025)
